{"source": "patent US20180280305A1", "about": "(Bayer HealthCare LLC, priority 2015, published 2018)", "origin": "cited, not measured here", "settings": "pain conditions, non-prescription (OTC) setting"}
{"molecule": "COc1ccc2cc([C@H](C)C(=O)O)ccc2c1", "note": "[naproxen sodium]", "values": [{"measurement": "lowest effective dose", "result": 220, "unit": "mg"}]}
